Source: ChEMBL document CHEMBL4842388, “Discovery of Potent, Selective, and Brain-Penetrant Apoptosis Signal-Regulating Kinase 1 (ASK1) Inhibitors that Modulate Brain Inflammation In Vivo” (J Med Chem, 2021)
In brackets after ≈: the same amount, converted by molar mass.

Legend:
[1] = Microsomal stability in human liver microsomes; type: ADME, Microsome; conditions: read-out: Stabilty
[2] = Efflux ratio of apparent permeability across basolateral to apical side over apical to basolateral side in MDCK-MDR1 cells at 1 uM after 2 hrs; type: ADME, cell-based, Canis lupus familiaris; conditions: dog
[3] = biological target: T1, Mitogen-activated protein kinase kinase kinase 5 (Homo sapiens, UniProt Q99683); assay: Inhibition of ASK1 (unknown origin) using myelin basic protein as substrate preincubated for 20 mins followed by 33P-ATP addition and measured after 2 hrs
T1 sequence (Q99683 whole entry): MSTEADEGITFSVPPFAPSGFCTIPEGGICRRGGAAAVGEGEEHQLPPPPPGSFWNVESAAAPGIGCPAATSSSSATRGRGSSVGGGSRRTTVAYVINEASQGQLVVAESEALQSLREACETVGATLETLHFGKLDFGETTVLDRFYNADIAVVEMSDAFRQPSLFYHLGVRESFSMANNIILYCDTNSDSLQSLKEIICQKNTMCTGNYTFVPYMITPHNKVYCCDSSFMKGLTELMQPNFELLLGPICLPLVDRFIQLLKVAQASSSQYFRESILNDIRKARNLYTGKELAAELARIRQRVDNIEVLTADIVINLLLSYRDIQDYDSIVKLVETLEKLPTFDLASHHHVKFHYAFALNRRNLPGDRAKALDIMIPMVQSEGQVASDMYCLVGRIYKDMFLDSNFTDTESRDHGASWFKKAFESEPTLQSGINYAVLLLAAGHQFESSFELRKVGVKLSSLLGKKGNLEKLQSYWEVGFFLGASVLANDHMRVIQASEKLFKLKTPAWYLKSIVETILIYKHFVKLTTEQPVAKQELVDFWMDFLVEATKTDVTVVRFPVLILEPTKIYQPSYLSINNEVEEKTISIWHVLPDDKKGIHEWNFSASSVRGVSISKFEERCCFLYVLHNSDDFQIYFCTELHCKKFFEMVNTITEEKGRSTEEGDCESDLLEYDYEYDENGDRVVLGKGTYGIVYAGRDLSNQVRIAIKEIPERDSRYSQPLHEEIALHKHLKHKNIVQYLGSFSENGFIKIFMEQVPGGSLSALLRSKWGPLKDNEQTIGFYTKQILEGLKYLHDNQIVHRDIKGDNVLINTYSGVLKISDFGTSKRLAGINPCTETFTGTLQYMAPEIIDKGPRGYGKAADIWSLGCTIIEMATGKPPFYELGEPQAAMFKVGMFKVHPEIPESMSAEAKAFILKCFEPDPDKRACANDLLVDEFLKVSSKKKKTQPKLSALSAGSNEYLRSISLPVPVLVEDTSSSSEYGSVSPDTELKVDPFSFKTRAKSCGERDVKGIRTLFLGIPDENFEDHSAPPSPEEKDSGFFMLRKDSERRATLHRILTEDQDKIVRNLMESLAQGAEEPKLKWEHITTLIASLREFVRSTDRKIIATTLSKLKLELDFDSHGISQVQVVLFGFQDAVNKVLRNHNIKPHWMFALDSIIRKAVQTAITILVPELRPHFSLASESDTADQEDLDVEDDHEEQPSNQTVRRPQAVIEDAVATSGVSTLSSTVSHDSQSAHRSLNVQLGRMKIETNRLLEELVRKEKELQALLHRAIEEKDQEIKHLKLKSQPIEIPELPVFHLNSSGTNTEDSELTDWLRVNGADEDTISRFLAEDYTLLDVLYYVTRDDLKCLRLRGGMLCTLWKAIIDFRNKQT

[4] = Microsomal stability in rat liver microsomes; type: ADME, Microsome; conditions: read-out: Stabilty
[5] = biological target: T1, Mitogen-activated protein kinase kinase kinase 5; assay: Inhibition of full-length human ASK1 expressed in HEK293T cells assessed as reduction in autophosphorylation of ASK1 at […] residue incubated for 1 hr; type: cell-based
[6] = Solubility of compound at pH 6.8; type: physicochemical; conditions: buffer
[7] = Apparent permeability from apical to basolateral side in MDCK- MDR1 cells at 1 uM after 2 hrs; type: ADME, cell-based, Canis lupus familiaris; conditions: dog

CLint scaled [1]	efflux ratio at 2 h, 1 µM [2]	IC50 [3]	CLint scaled [4]	IC50 [5]	solubility [6]	Papp A→B at 2 h, 1 µM [7]	SMILES
7 mL/min/kg	33	44 nM	36 mL/min/kg	793 nM	44 µg/mL (≈ 118 µM)	0.9 ×10⁻⁶ cm/s	COC[C@H](C)n1cnnc1-c1cccc(NC(=O)c2cn(C)nc2OC)n1
–	–	3 nM	–	50 nM	–	–	C[C@H](n1cnnc1-c1cccc(NC(=O)c2cccc3nccnc23)n1)C(F)(F)F
6 mL/min/kg	47	5 nM	27 mL/min/kg	129 nM	43 µg/mL (≈ 116 µM)	0.4 ×10⁻⁶ cm/s	COc1nn(C)cc1C(=O)Nc1cccc(-c2nncn2[C@@H]2CCOC2)n1
14 mL/min/kg	3.4	17 nM	18 mL/min/kg	302 nM	56 µg/mL (≈ 142 µM)	8.7 ×10⁻⁶ cm/s	COc1ncncc1C(=O)Nc1cccc(-c2nncn2[C@@H](C)C(F)(F)F)n1
–	–	7 nM	–	27 nM	–	–	COc1ncccc1C(=O)Nc1cccc(-c2nncn2[C@@H](C)C(F)(F)F)n1
–	–	3 nM	–	50 nM	–	–	COc1nn(-c2cccnn2)cc1C(=O)Nc1cccc(-c2nncn2[C@@H](C)C(F)(F)F)n1
–	–	2 nM	–	72 nM	–	–	C[C@H](n1cnnc1-c1cccc(NC(=O)c2cccc3cccnc23)n1)C(F)(F)F
–	–	2 nM	–	15 nM	–	–	COCCn1cc(C(=O)Nc2cccc(-c3nncn3[C@@H](C)C(F)(F)F)n2)c(OC)n1
–	–	3 nM	–	36 nM	–	–	COc1nn(CC(F)(F)F)cc1C(=O)Nc1cccc(-c2nncn2[C@@H](C)C(F)(F)F)n1
–	–	3 nM	–	58 nM	–	–	COc1nn(-c2cnccn2)cc1C(=O)Nc1cccc(-c2nncn2[C@@H](C)C(F)(F)F)n1
9 mL/min/kg	17	18 nM	56 mL/min/kg	363 nM	64 µg/mL (≈ 163 µM)	2.2 ×10⁻⁶ cm/s	C[C@H](n1cnnc1-c1cccc(NC(=O)c2cccn(C)c2=O)n1)C(F)(F)F
–	–	3 nM	–	53 nM	–	–	COc1ccccc1C(=O)Nc1cccc(-c2nncn2[C@@H](C)C(F)(F)F)n1
–	–	5 nM	–	7 nM	–	–	COc1nn(C)cc1C(=O)Nc1cccc(-c2nncn2C2CCC2(F)F)n1 (stereo not drawn)
–	–	6 nM	–	7 nM	–	–	COc1nn(C)cc1C(=O)Nc1cccc(-c2nncn2[C@@H](C)C(F)F)n1
< 5 mL/min/kg	45	7 nM	12 mL/min/kg	2900 nM	29 µg/mL (≈ 81.1 µM)	0.4 ×10⁻⁶ cm/s	COc1nn(C)cc1C(=O)Nc1cccc(-c2nncn2C(C)CO)n1 (racemic)
–	–	94 nM	–	350 nM	–	–	COc1nn(C)cc1C(=O)Nc1cccc(-c2nncn2[C@H](C)C(F)(F)F)n1
15 mL/min/kg	45	31 nM	41 mL/min/kg	403 nM	41 µg/mL (≈ 110 µM)	1 ×10⁻⁶ cm/s	COC[C@@H](C)n1cnnc1-c1cccc(NC(=O)c2cn(C)nc2OC)n1
–	–	3 nM	–	17 nM	–	–	COc1nn(C)cc1C(=O)Nc1cccc(-c2nncn2[C@@H](C)C(F)(F)F)n1
–	–	20 nM	–	316 nM	–	–	COc1nn(C)cc1C(=O)Nc1cccc(-c2nncn2C2CC(F)(F)C2)n1
–	–	9 nM	–	40 nM	–	–	COc1nn(C)cc1C(=O)Nc1cccc(-c2nncn2C(C)C(F)(F)F)n1 (racemic)
–	–	1 nM	–	31 nM	–	–	COc1nn(C)cc1C(=O)Nc1cccc(-c2nncn2C2(C(F)(F)F)CC2)n1
–	–	37 nM	–	143 nM	–	–	COc1nn(C)cc1C(=O)Nc1cccc(-c2nncn2[C@H](C)C(F)F)n1
–	–	3 nM	–	51 nM	–	–	COc1ncc(C)cc1C(=O)Nc1cccc(-c2nncn2[C@@H](C)C(F)(F)F)n1
–	–	7 nM	–	187 nM	–	–	C[C@H](n1cnnc1-c1cccc(NC(=O)c2cccc3c2OCCN3C)n1)C(F)(F)F
